From PMC4284702, “Cloning and Characterization of Farnesyl Diphosphate Synthase Gene Involved in Triterpenoids Biosynthesis from Poria cocos” (International Journal of Molecular Sciences, 2014)

Target: rPc-FPS (Pc-FPS, recombinant farnesyl diphosphate synthase of Poria cocos) (Wolfiporia cocos, UniProt K7DW87)
Experiment: GC of farnesol after acid phosphatase hydrolysis of product FPP
Type: biochemical
Conditions: 2 mM MgCl2, 5 mM DTT, 50 mM MOPS pH 7.5, 30 °C, 3 h

Chain of rPc-FPS (Pc-FPS, recombinant farnesyl diphosphate synthase of Poria cocos) (K7DW87 entry or part of it): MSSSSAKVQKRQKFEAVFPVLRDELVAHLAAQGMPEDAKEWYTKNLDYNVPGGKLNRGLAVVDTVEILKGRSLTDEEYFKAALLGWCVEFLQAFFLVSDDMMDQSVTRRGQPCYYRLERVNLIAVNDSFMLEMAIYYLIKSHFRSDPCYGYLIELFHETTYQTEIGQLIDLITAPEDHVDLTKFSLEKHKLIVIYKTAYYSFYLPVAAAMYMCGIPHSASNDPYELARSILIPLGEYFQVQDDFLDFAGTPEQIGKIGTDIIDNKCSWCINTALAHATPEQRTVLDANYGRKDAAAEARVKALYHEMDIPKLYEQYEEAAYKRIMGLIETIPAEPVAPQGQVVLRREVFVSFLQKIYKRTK

Compound | GC of farnesol after acid phosphatase hydrolysis of product FPP (50 uM GPP, co-substrate 50 uM IPP) | GC of farnesol after acid phosphatase hydrolysis of product FPP (50 uM IPP, co-substrate 50 uM GPP)
CC(C)=CCC/C(C)=C/COP(=O)(O)OP(=O)(O)O [GPP] | the purified rPc-FPS was used to catalyze GPP with IPP to produce FPP | –
C=C(C)CCOP(=O)(O)OP(=O)(O)O [IPP] | – | rPc-FPS could catalyze the formation of FPP from GPP and IPP
